For this assay, the target named is T1, Epac1 (Homo sapiens, UniProt O95398).
T1 construct: Recombinant human Epac1 (residues 149-881), deleted of its Dishevelled, Egl-10, and Pleckstrin (DEP) domain; made in house
T1 sequence (O95398 149-881 isoform O95398-3): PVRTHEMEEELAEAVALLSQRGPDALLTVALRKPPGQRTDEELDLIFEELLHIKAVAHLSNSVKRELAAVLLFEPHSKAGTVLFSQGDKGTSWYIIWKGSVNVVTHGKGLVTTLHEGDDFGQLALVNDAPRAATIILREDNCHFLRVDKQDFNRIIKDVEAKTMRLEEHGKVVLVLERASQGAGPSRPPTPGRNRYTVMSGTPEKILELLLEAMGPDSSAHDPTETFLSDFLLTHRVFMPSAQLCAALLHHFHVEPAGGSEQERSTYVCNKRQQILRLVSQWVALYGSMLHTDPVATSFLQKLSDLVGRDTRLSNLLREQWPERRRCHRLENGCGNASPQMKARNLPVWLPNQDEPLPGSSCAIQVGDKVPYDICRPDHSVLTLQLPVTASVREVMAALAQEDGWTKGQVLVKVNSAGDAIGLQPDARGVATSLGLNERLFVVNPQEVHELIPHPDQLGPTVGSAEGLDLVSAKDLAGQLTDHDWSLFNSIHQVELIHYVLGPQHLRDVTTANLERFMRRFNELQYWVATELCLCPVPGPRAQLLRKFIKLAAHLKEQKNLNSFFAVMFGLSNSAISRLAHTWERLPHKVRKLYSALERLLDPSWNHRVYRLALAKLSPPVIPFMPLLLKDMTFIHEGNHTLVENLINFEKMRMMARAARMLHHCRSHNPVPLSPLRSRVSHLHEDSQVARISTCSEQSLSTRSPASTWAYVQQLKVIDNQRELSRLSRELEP
The assay is described as follows: Epac1 nucleotide exchange activity, multipoint (time-course) method, bGDP-loaded GST-Rap1A. It counts as biochemical. The note with it: 20 μM CE3F4, single dose; 2 μM compound 007; FIG. 1. The procedure: Epac1 nucleotide exchange activity was measured: • in the absence of compound 007, • or in the presence of 2 μM of compound 007, either alone or with 25 μM of compound 009, • or with 20 μM of CE3F4.
Variations of RFU (Relative Fluorescence Units) were studied as a function of time and fitted to single exponentials. Reported values are mean±SEM (n=3). (see Materiel and Methods).
Concerning FIG. 1, a “multipoint” (time-course) method was used. All components except the agonist (007) were mixed in a well and the exchange activity of Epac1 was initiated by injection of the agonist. GST-Rapt was preloaded with a fluorescent derivative of GDP, and the Epac1-catalyzed nucleotide exchange was measured using a large excess of non-fluorescent GDP, by taking advantage of the spectroscopic difference between free and Rap1-bound fluorescently labeled GDP. The principle of the method is similar to that reported in particular by Van den Berghe et al. (1997; Oncogene 15, 845), except that Bodipy FL-labeled GDP (bGDP) was used here, rather than 2′,3′-bis(O)—N-methylanthraniloyl-GDP (mant-GDP). […]

For the compound `CC1CCc2c(cc(Br)c(F)c2Br)N1C=O` (racemic) [CE3F4], the “Inhibition of the exchange reaction induced by Epac1 plus 007” value was “inhibited the exchange reaction”.

Source of the values: patent US10093627B2, “Tetrahydroquinoline derivatives and their use as Epac inhibitors” (Institut National de la Sante et de la Recherche Medicale …, priority 2012, dated 2018).
